Measurements from paper PMC8851282, “Senolysis induced by 25-hydroxycholesterol targets CRYAB in multiple cell types” (iScience, 2022).

Key:
Type in all cases: cell-based
[1] = test system: human articular chondrocytes (hAC); experiment: Cell viability assay of NS and Doxo- or IR-induced senescent hACs treated with 25HC; details: 11.1 μM after 12 days; Doxo or IR induced senescence
Method: (§1) Figure 7 25HC treatment timeline and its effects on NS and SEN hCMECs, hLSCs, hRPTECs, and hACs All cell types were treated with either DMSO, 250 nM Doxo or 10-Gy IR at the times shown. 25HC treatment was started 24 h after Doxo or IR treatment. Cell viability was measured every 3–5 days for 15 days. Optimal treatment times for maximum senolysis are shown for each cell type: day 15 for hCMECs, day 3 for hLSCs, day 9 for hRPTECs and day 12 for hACs. For qRT-PCR: mean ± SE, n =4, ∗p< 0.05, ∗∗p< 0.01, ∗∗∗p<0.001, ∗∗∗∗p<0.0001 by Dunnett’s multiple comparisons test vs DMSO or NS, For cell viability assays: mean ± SE, n =3, ∗∗p< 0.01, ∗∗∗p<0.001, ∗∗∗∗p<0.0001 vs 0 mM by student’s t test.
(§2) All experiments were performed in incubators at 37 °C, 3% O2 and 5% CO2. Senescence was induced by treatment with either Doxo (250 nM for 24 h) ([Demaria et al., 2017]) or X-irradiation (10 Gy) ([Limbad et al., 2020]). […]
(§3) Cell viability was assessed using a cell counting kit-8 from Dojindo Molecular Technologies, Inc (Cat CK04-20). […] The supernatant was transferred to a new 96-well plate and absorbance read at 450 nm as recommended in the product datasheet. […]
Cells were treated with DMSO or 250 nM Doxo for 24 h. […] Cell viability was measured every 3–5 days until 15 days. […] Cell viability was measured every 3–5 days until 15 days. […]

[2] = test system: mouse dermal fibroblasts (mDFs); experiment: Cell viability assay of NS and SEN mouse dermal fibroblasts treated with CRYAB and HMOX1 inhibitors; details: 250 nM Doxo-induced senescence; after 72 h of treatment; 25HC at five or 10 μM
Method: The average value of DMSO was set at 1. (B and D) Effects of CRYAB and HMOX1 inhibitors on DMSO-treated NS or Doxo-treated SEN cells; (B) mDFs, (D) IMR-90s. Cells were treated with the inhibitors at the indicated concentrations. Cell viability was measured after 72 h. (C) IMR-90 qRT-PCR. For qPCR: mean +/- SE, n =4, ∗p< 0.05, ∗∗p< 0.01, ∗∗∗p<0.001, ∗∗∗∗p<0.0001 by Dunnett’s multiple comparisons test vs DMSO. For cell viability assays: mean +/- SE, n =3, ∗∗p< 0.01, ∗∗∗p<0.001, ∗∗∗∗p<0.0001 vs 0 mM by student’s t test.
For skin sample collection, mice were euthanized, hair removed from dorsal skin and the area cleaned with alcohol. A small 1 cm x 1 cm region of skin was removed, and subcutaneous fat removed by scalpel. Skin was digested in 2–3 ml of 0.25% trypsin at 37 °C for 1 h. Hair and epidermis were further removed, and the dermis was minced into 2–3 mm pieces. Digestion of the sample in 5 ml of 1 mg/ml collagenase (Sigma, Cat#C5138) in HBSS (with Ca^++ and Mg^++) (Gibco, cat#24020117) was carried out at 37 °C on a shaker for 1 h. Collagenase digestion was stopped by addition of 10 ml 10% FBS DMEM. Filtration of the homogenate through a 70-micron mesh was performed to remove undigested tissue. Differential centrifugation and washing were performed at 1200 rpm for 5 min, and the pellet was resuspended in 10% FBS DMEM then seeded in a six-well plate. Media were changed at 5 days after seeding and then every 3 days.
All experiments were performed in incubators at 37 °C, 3% O2 and 5% CO2. Senescence was induced by treatment with either Doxo (250 nM for 24 h) ([Demaria et al., 2017]) or X-irradiation (10 Gy) ([Limbad et al., 2020]). For cell culture studies using 25HC, it was used at the indicated concentrations in the media.
Cell viability was assessed using a cell counting kit-8 from Dojindo Molecular Technologies, Inc (Cat CK04-20). Cells were incubated with culture media + 10% kit cell viability reagent, 150 μL/well in 96-well plates for 2 h. The supernatant was transferred to a new 96-well plate and absorbance read at 450 nm as recommended in the product datasheet.

[3] = test system: human cardiac microvascular endothelial cells (hCMECs); experiment: Cell viability assay of NS and Doxo- or IR-induced senescent hCMECs treated with 25HC; details: 10 μM after 15 days of treatment; Doxo or IR induced senescence
Method: as §1, §2, §3
Supplementary Fig. 10 (related to Fig. 6-7). […] Cel l vi abi l i ty was measured every 3–5 days until 15 days. […] Cel l vi abi l i ty was measured every 3–5 days until 15 days. […]

C[C@H](CCCC(C)(C)O)[C@H]1CC[C@H]2[C@@H]3CC=C4C[C@@H](O)CC[C@]4(C)[C@H]3CC[C@]12C [25HC, 25-hydroxycholesterol]
induced significant senolysis: senolysis in hACs [1] | senolysis in mDF cells [2] | senolysis in hCMECs [3]
